One experiment relates to A549. Nature of the experiment: Anticancer activity against human A549 cells assessed as cell growth inhibition measured after 72 hrs by MTT assay. Format: functional, cell-based. The settings on record: A549, 72 h.
A short description of experiment [1]: Inhibition of EGFR Del19/T790M/C797S triple mutant in mouse BaF3 cells assessed as cell growth inhibition measured after 72 hrs by CellTiter-Glo assay. The class given is cell-based. The settings on record: BaF3, 72 h.
The nature of experiment [2]: Inhibition of EGFR L858R/T790M/C797S triple mutant in mouse BaF3 cells assessed as cell growth inhibition measured after 72 hrs by CellTiter-Glo assay. Particulars: BaF3, 72 h. Format: cell-based.
Experiment [3] has as its system NCI-H1975. Nature of the experiment: Anticancer activity against human NCI-H1975 cells assessed as cell growth inhibition measured after 72 hrs by MTT assay. Particulars: NCI-H1975, 72 h. The class given is functional, cell-based.
Experiment [4] can be described thus: Inhibition of EGFR L858R/T790M double mutant in mouse BaF3 cells assessed as cell growth inhibition measured after 72 hrs by CellTiter-Glo assay. Format: cell-based. Particulars: BaF3, 72 h.
Experiment [5] has as its system NCI-H1975. As to the kind of experiment: Potency index, ratio of gefitinib IC50 to test compound IC50 for anticancer activity against human NCI-H1975 cells assessed as cell growth inhibition measured after 72 hrs by MTT assay. Format: functional.

SMILES strings stand for the structures.

Regarding `CC(C)(O)CC(=O)NCCn1ccc2ncnc(Nc3ccc(NC(=O)C(c4ccccc4)N4Cc5ccccc5C4=O)cc3)c21` (stereo not drawn), the concentration for half-maximal inhibition (IC50) in the experiment with A549 is greater than 20 µM; in experiment [1], greater than 20 µM; in experiment [2], greater than 20 µM; in the experiment with NCI-H1975 [3] it was greater than 20 µM; in experiment [4], greater than 20000 nM.
Take `C=CC(=O)Nc1cc(Nc2nccc(-c3cn(C)c4ccccc34)n2)c(OC)cc1N(C)CCN(C)C` [OSIMERTINIB]: in experiment [1], the IC50 worked out at 0.75 µM.
For the compound `COc1cc2ncnc(NNc3ccc(NC(=O)C(c4ccccc4)N4Cc5ccccc5C4=O)cc3)c2cc1OCCCN1CCOCC1` (stereo not drawn), the IC50 in experiment [2] turned out to be 7.8 µM; in the experiment with NCI-H1975 [3], 5.13 µM.
With `COc1cc2ncnc(NCc3ccc(NC(=O)C(c4ccccc4)N4Cc5ccccc5C4=O)cc3)c2cc1OCCCN1CCOCC1` (stereo not drawn), the IC50 in experiment [1] is 3.46 µM; in experiment [2] it was 3.67 µM; with NCI-H1975 [3], 11 µM.
Consider `COc1cc2ncnc(Nc3ccc(C(=O)NNC(=O)C(c4ccccc4)N4Cc5ccccc5C4=O)cc3)c2cc1OCCCN1CCOCC1` (stereo not drawn), for which the IC50 (in experiment [2]; in the experiment on NCI-H1975 [3]) was greater than 20 µM each time.
For `COCCOc1cc2ncnc(Nc3ccc(NC(=O)C(c4ccccc4)N4Cc5ccccc5C4=O)cc3)c2cc1OCCOC` (stereo not drawn), the half-inhibitory concentration (IC50) was greater than 20 µM in the experiment on A549; greater than 20 µM in experiment [1]; greater than 20 µM in experiment [2]; 1.85 µM in the experiment with NCI-H1975 [3]; 2690 nM in experiment [4].
`COc1cc2ncnc(NCc3cccc(NC(=O)C(c4ccccc4)N4Cc5ccccc5C4=O)c3)c2cc1OCCCN1CCOCC1` (stereo not drawn): the IC50 in experiment [2] amounted to 8.83 µM; with NCI-H1975 [3], 8.74 µM.
Taken in the same sequence, the figures for `COc1cc2ncnc(Nc3ccc(NC(=O)C(c4ccccc4)N4Cc5ccccc5C4=O)c(F)c3)c2cc1OCCCN1CCOCC1` (stereo not drawn) were 5.85 µM and 3.72 µM.
For the compound `COc1cc2ncnc(Nc3ccc(NC(=O)C(c4ccccc4)N4Cc5ccccc5C4=O)cc3)c2cc1OCCCN1CCOCC1` (stereo not drawn), the “Ratio IC50” value with NCI-H1975 [5] is reported as 6. Further, the IC50 in the experiment with A549 is greater than 20 µM; in experiment [1], 8.13 µM; in experiment [2] it was 5.47 µM; with NCI-H1975 [3], 1.69 µM; in experiment [4] it was 1450 nM.
Consider `COc1cc2ncnc(Nc3ccc(CNC(=O)C(c4ccccc4)N4Cc5ccccc5C4=O)cc3)c2cc1OCCCN1CCOCC1` (stereo not drawn), for which the concentration for half-maximal inhibition (IC50) was greater than 20 µM in experiment [2] and 14.4 µM with NCI-H1975 [3].
With `COc1cc2ncnc(Nc3cccc(NC(=O)C(c4ccccc4)N4Cc5ccccc5C4=O)c3)c2cc1OCCCN1CCOCC1` (stereo not drawn), the IC50 in experiment [2] worked out at 9.06 µM; in the experiment with NCI-H1975 [3], 9.32 µM.
In the case of `CNC(=O)CN1CCC(Oc2cc3c(Nc4ccc(NC(=O)C(c5ccccc5)N5Cc6ccccc6C5=O)cc4)ncnc3cc2OC)CC1` (stereo not drawn), the IC50 is greater than 20 µM in the experiment with A549; greater than 20 µM in experiment [1]; greater than 20 µM in experiment [2]; greater than 20 µM in the experiment with NCI-H1975 [3]; 1320 nM in experiment [4].
For the compound `COc1cc2ncnc(NNC(=O)c3cccc(NC(=O)C(c4ccccc4)N4Cc5ccccc5C4=O)c3)c2cc1OCCCN1CCOCC1` (stereo not drawn), the IC50 (in experiment [2]; in the experiment with NCI-H1975 [3]) was greater than 20 µM in each case.
`COc1cc2ncnc(N(C)c3ccc(NC(=O)C(c4ccccc4)N4Cc5ccccc5C4=O)cc3)c2cc1OCCCN1CCOCC1` (stereo not drawn): the IC50 in experiment [2] was 8.45 µM; in the experiment with NCI-H1975 [3], 6.28 µM.
Turning to `O=C(Nc1nccs1)C(c1ccccc1)N1Cc2ccccc2C1=O` (stereo not drawn), the IC50 (in experiment [1]; in experiment [2]; with NCI-H1975 [3]) was greater than 10 µM throughout.
In the case of `COc1cc2ncnc(NNC(=O)c3ccc(NC(=O)C(c4ccccc4)N4Cc5ccccc5C4=O)cc3)c2cc1OCCCN1CCOCC1` (stereo not drawn), the IC50 (in experiment [2]; in the experiment with NCI-H1975 [3]) was greater than 20 µM throughout.
Regarding `COc1cc2ncnc(Nc3ccc(NC(=O)C(c4ccccc4)N4Cc5ccccc5C4=O)cc3F)c2cc1OCCCN1CCOCC1` (stereo not drawn), the IC50 is 6.16 µM in experiment [2] and 9 µM in the experiment with NCI-H1975 [3].

(Values after ChEMBL document CHEMBL5329204, “Design, synthesis and biological evaluation of EGFR kinase inhibitors that spans the orthosteric and allosteric sites” (Bioorg Med Chem, 2023).)
